Publication PMC8342319, “Predicting blood-to-plasma concentration ratios of drugs from chemical structures and volumes of distribution in humans” (Molecular Diversity, 2021)
Read-outs that look alike come from different tables or passages of the source.

Experiments:
[1] = human, cited from earlier work
plasma protein = details: cited from earlier work; for fp_Human (free fraction in plasma): human, collected value, median if multiple values were reported, ref: Table S1
[2] = cited from earlier work
[3] = human
[4] = intravenous, median if multiple values were reported, ref numbers in Table S1
[5] = human, intravenous, median if multiple values were reported, ref numbers in Table S1
[6] = intravenous, median if multiple values reported, Reference of Table S1

Row | Structure (SMILES) | in vivo Vd_(L/kg)_Human [1, 4] [L/kg] | in vivo CL_(L/hr/kg)_Human [2, 5] [L/h/kg] | other results
1 | CC(=O)Nc1ccc(O)cc1 [Acetaminophen] | 1.000 | – | fp_Human (free fraction in plasma) (plasma protein): 0.710
2 | CN(C)Cc1nnc2n1-c1ccc(Cl)cc1C(c1ccccc1)=NC2 [Adinazolam] | – | 0.372 | in vivo MRT_(hr)_Human [3]: 2.634 h; in vivo Vd_(L/kg)_Human ([1]; in vivo, iv): 0.980 L/kg
3 | Oc1ncnc2[nH]ncc12 [Allopurinol] | 0.580 | – | –
4 | Cc1nnc2n1-c1ccc(Cl)cc1C(c1ccccc1)=NC2 [Alprazolam] | 0.800 | 0.044 | –
5 | C=CCc1ccccc1OCC(O)CNC(C)C (stereo not shown) [Alprenolol] | 3.200 | 0.900 | –
6 | CCCCc1oc2ccccc2c1C(=O)c1cc(I)c(OCCN(CC)CC)c(I)c1 [Amiodarone] | – | 0.114 | –
7 | CN(C)CCC=C1c2ccccc2CCc2ccccc21 [Amitriptyline] | 8.700 | 0.593 | –
8 | CC1(C)S[C@@H]2[C@H](NC(=O)[C@H](N)c3ccc(O)cc3)C(=O)N2[C@H]1C(=O)O [Amoxicillin] | 0.250 | 0.198 | –
9 | C[C@@H](O[C@H]1OCCN(Cc2n[nH]c(=O)[nH]2)[C@H]1c1ccc(F)cc1)c1cc(C(F)(F)F)cc(C(F)(F)F)c1 [Aprepitant] | 0.940 | – | –
10 | CC(C)NCC(O)COc1ccc(CC(N)=O)cc1 (stereo not shown) [Atenolol] | – | 0.150 | –
11 | C[C@H]1C[C@H]2[C@@H]3CCC4=CC(=O)C=C[C@]4(C)[C@@]3(F)[C@@H](O)C[C@]2(C)[C@@]1(O)C(=O)CO [Betamethasone] | – | 0.168 | –
12 | OC(CCN1CCCCC1)(c1ccccc1)C1CC2C=CC1C2 (stereo not shown) [Biperiden] | 9.100 | – | in vivo MRT_(hr)_Human [3]: 12.639 h
13 | CC(C)NCC(O)COc1ccc(COCCOC(C)C)cc1 (stereo not shown) [Bisoprolol] | 2.400 | 0.222 | fp_Human (free fraction in plasma) (plasma protein): 0.830
14 | CCCC1O[C@@H]2C[C@H]3[C@@H]4CCC5=CC(=O)C=C[C@]5(C)[C@H]4[C@@H](O)C[C@]3(C)[C@]2(C(=O)CO)O1 (stereo partly shown) [Budesonide] | 3.900 | 1.200 | –
15 | COc1ccccc1OCCNCC(O)COc1cccc2[nH]c3ccccc3c12 (stereo not shown) [Carvedilol] | 1.300 | 0.495 | –
16 | C=CC1=C(C(=O)O)N2C(=O)[C@@H](NC(=O)/C(=N\OCC(=O)O)c3csc(N)n3)[C@H]2SC1 [Cefixime] | 0.240 | 0.060 | –
17 | CCC[C@@H]1C[C@@H](C(=O)N[C@@H]([C@H]2O[C@H](SC)[C@H](O)[C@@H](O)[C@H]2O)[C@H](C)Cl)N(C)C1 [Clindamycin] | – | 0.270 | –
18 | CN1CCN(C2=Nc3cc(Cl)ccc3Nc3ccccc32)CC1 [Clozapine] | 1.600 | – | in vivo MRT_(hr)_Human [3]: 10.667 h
19 | CNCCCN1c2ccccc2CCc2ccccc21 [Desipramine] | 15.000 | – | in vivo MRT_(hr)_Human [3]: 22.727 h
20 | C[C@@H]1C[C@H]2[C@@H]3CCC4=CC(=O)C=C[C@]4(C)[C@@]3(F)[C@@H](O)C[C@]2(C)[C@@]1(O)C(=O)CO [Dexamethasone] | – | 0.198 | –

Row | Structure (SMILES) | in vivo Vd_(L/kg)_Human [1, 4] [L/kg] | in vivo CL_(L/hr/kg)_Human [2, 5] [L/h/kg] | other results
21 | CN1C(=O)CN=C(c2ccccc2)c2cc(Cl)ccc21 [Diazepam] | – | 0.023 | –
22 | O=c1[nH]cnc2c1ncn2[C@H]1CC[C@@H](CO)O1 [Didanosine] | – | 0.660 | in vivo MRT_(hr)_Human [3]: 1.197 h
23 | COc1cc2nc(N3CCN(C(=O)C4COc5ccccc5O4)CC3)nc(N)c2cc1OC (stereo not shown) [Doxazosin] | 1.300 | – | in vivo MRT_(hr)_Human [3]: 13.542 h
24 | CCN(CC)C(=O)/C(C#N)=C/c1cc(O)c(O)c([N+](=O)[O-])c1 [Entacapone] | 0.270 | 0.720 | –
25 | CC[C@H]1OC(=O)[C@H](C)[C@@H](O[C@H]2C[C@@](C)(OC)[C@@H](O)[C@H](C)O2)[C@H](C)[C@@H](O[C@@H]2O[C@H](C)C[C@H](N(C)C)[C@H]2O)[C@](C)(O)C[C@@H](C)C(=O)[C@H](C)[C@@H](O)[C@]1(C)O [Erythromycin] | – | – | fp_Human (free fraction in plasma) (plasma protein): 0.220
26 | CC(C)(C)NC(=O)[C@H]1CC[C@H]2[C@@H]3CC[C@H]4NC(=O)C=C[C@]4(C)[C@H]3CC[C@]12C [Finasteride] | 1.100 | – | in vivo MRT_(hr)_Human [3]: 7.639 h
27 | O=C(NCC1CCCCN1)c1cc(OCC(F)(F)F)ccc1OCC(F)(F)F (stereo not shown) [Flecainide] | 6.100 | – | in vivo MRT_(hr)_Human [3]: 20.748 h
28 | CCOC(=O)c1ncn2c1CN(C)C(=O)c1cc(F)ccc1-2 [Flumazenil] | – | 0.960 | –
29 | CC1(C)O[C@@H]2C[C@H]3[C@@H]4C[C@H](F)C5=CC(=O)C=C[C@]5(C)[C@H]4[C@@H](O)C[C@]3(C)[C@]2(C(=O)CO)O1 [Flunisolide] | – | 0.720 | in vivo MRT_(hr)_Human [3]: 2.500 h
30 | O=c1[nH]cc(F)c(=O)[nH]1 [Fluorouracil] | – | – | fp_Human (free fraction in plasma) (plasma protein): 0.770
31 | CC(C)n1c(/C=C/C(O)CC(O)CC(=O)O)c(-c2ccc(F)cc2)c2ccccc21 (stereo not shown) [Fluvastatin] | 0.420 | – | in vivo MRT_(hr)_Human [3]: 0.438 h
32 | O=C(O)P(=O)(O)O [Foscarnet] | 0.500 | 0.126 | –
33 | NS(=O)(=O)c1cc(C(=O)O)c(NCc2ccco2)cc1Cl [Furosemide] | – | 0.096 | –
34 | O=C(/C=C/c1c(C(=O)O)[nH]c2cc(Cl)cc(Cl)c12)Nc1ccccc1 [Gavestinel] | – | – | fp_Human (plasma protein): 0.002
35 | CCC1=C(C)CN(C(=O)NCCc2ccc(S(=O)(=O)NC(=O)N[C@H]3CC[C@H](C)CC3)cc2)C1=O [Glimepiride] | 0.190 | 0.034 | fp_Human (free fraction in plasma) (plasma protein): 0.028
36 | CC#CCC(C)[C@H](O)/C=C/[C@@H]1[C@H]2C/C(=C/CCCC(=O)O)C[C@H]2C[C@H]1O (stereo partly shown) [Iloprost] | 0.385 | 0.960 | fp_Human (free fraction in plasma) (plasma protein): 0.400
37 | CN(C)CCCN1c2ccccc2CCc2ccccc21 [Imipramine] | 12.000 | – | –
38 | CCC(C)n1ncn(-c2ccc(N3CCN(c4ccc(OCC5COC(Cn6cncn6)(c6ccc(Cl)cc6Cl)O5)cc4)CC3)cc2)c1=O (stereo not shown) [Itraconazole] | 7.400 | 0.306 | –
39 | CC(CCc1ccccc1)NCC(O)c1ccc(O)c(C(N)=O)c1 (stereo not shown) [Labetalol] | – | 1.380 | fp_Human (free fraction in plasma) (plasma protein): 0.500
40 | Cc1c(OCC(F)(F)F)ccnc1C[S+]([O-])c1nc2ccccc2[nH]1 (stereo not shown) [Lansoprazole] | 0.280 | 0.319 | –

Row | Structure (SMILES) | in vivo Vd_(L/kg)_Human [1, 4] [L/kg] | in vivo CL_(L/hr/kg)_Human [2, 5] [L/h/kg] | other results
41 | CCN(CC)CC(=O)Nc1c(C)cccc1C [Lidocaine] | – | 0.756 | –
42 | CC[C@H](C)C(=O)O[C@H]1C[C@@H](C)C=C2C=C[C@H](C)[C@H](CC[C@@H]3C[C@@H](O)CC(=O)O3)[C@H]21 [Lovastatin] | 0.870 | 0.432 | –
43 | CN(c1nc2ccccc2s1)C1CCN(C[C@H](O)COc2ccc(F)c(F)c2)CC1 [Lubeluzole] | – | 0.102 | fp_Human (free fraction in plasma) (plasma protein): 0.003
44 | CN1CC[C@]23c4c5ccc(O)c4O[C@H]2[C@@H](O)C=C[C@H]3[C@H]1C5 [Morphine] | – | 1.500 | –
45 | C=CCN1CC[C@]23c4c5ccc(O)c4O[C@H]2C(=O)CC[C@@]3(O)[C@H]1C5 [Naloxone] | 1.700 | – | –
46 | COc1ccc2cc([C@H](C)C(=O)O)ccc2c1 [Naproxen] | – | 0.004 | –
47 | Cc1ccnc2c1NC(=O)c1cccnc1N2C1CC1 [Nevirapine] | 1.300 | 0.018 | –
48 | COCCOC(=O)C1=C(C)NC(C)=C(C(=O)OC(C)C)C1c1cccc([N+](=O)[O-])c1 (stereo not shown) [Nimodipine] | 1.000 | – | in vivo MRT_(hr)_Human [3]: 1.111 h
49 | COc1ccc2[nH]c([S+]([O-])Cc3ncc(C)c(OC)c3C)nc2c1 (stereo not shown) [Omeprazole] | 0.240 | 0.504 | –
50 | O=C1Nc2ccc(Cl)cc2C(c2ccccc2)=NC1O (stereo not shown) [Oxazepam] | – | – | in vivo CL_(L/hr/kg)_Human ([2]; in vivo, iv): 0.066 L/h/kg
51 | COc1ccc2c3c1O[C@H]1C(=O)CC[C@@]4(O)[C@@H](C2)N(C)CC[C@]314 [Oxycodone] | – | 0.366 | fp_Human (free fraction in plasma) (plasma protein): 0.550
52 | CCN1CCN(C(=O)N[C@@H](C(=O)N[C@@H]2C(=O)N3[C@@H]2SC(C)(C)[C@@H]3C(=O)O)c2ccccc2)C(=O)C1=O [Piperacillin] | – | – | in vivo MRT_(hr)_Human [3]: 1.125 h; in vivo Vd_(L/kg)_Human [1, 6]: 0.270 L/kg
53 | CCN(CC)CCNC(=O)c1ccc(N)cc1 [Procainamide] | – | – | fp_Human (plasma protein): 0.840
54 | O=C(c1ccc(OCCN2CCCCC2)cc1)c1c(-c2ccc(O)cc2)sc2cc(O)ccc12 [Raloxifene] | – | – | in vivo MRT_(hr)_Human [3]: 41.837 h; in vivo Vd_(L/kg)_Human [1, 6]: 36.900 L/kg
55 | Cc1nc2n(c(=O)c1CCN1CCC(c3noc4cc(F)ccc34)CC1)CCCC2 [Risperidone] | – | – | fp_Human (plasma protein; free fraction in human plasma, median if multiple values reported, Reference of Table S1): 0.100
56 | CCCc1nn(C)c2c(=O)[nH]c(-c3cc(S(=O)(=O)N4CCN(C)CC4)ccc3OCC)nc12 [Sildenafil] | – | – | in vivo MRT_(hr)_Human [3]: 2.564 h; in vivo Vd_(L/kg)_Human [1, 6]: 1.400 L/kg
57 | Cc1cc(NS(=O)(=O)c2ccc(N)cc2)no1 [Sulfamethoxazole] | – | – | in vivo CL_(L/hr/kg)_Human ([2]; human, intravenous, median if multiple values reported, Reference of Table S1): 0.020 L/h/kg
58 | CCCCNC(=O)NS(=O)(=O)c1ccc(C)cc1 [Tolbutamide] | – | – | in vivo MRT_(hr)_Human [3]: 9.524 h; in vivo Vd_(L/kg)_Human [1, 6]: 0.120 L/kg
59 | CCN(C(C)=O)c1cccc(-c2ccnc3c(C#N)cnn23)c1 [Zaleplon] | – | – | in vivo MRT_(hr)_Human [3]: 1.354 h; in vivo Vd_(L/kg)_Human ([1]; in vivo, iv): 1.300 L/kg
